Patent US20260041732A1, “USE OF APELIN FOR THE TREATMENT OF LYMPHEDEMA” (INSTITUT NATIONAL DE LA SANTE ET DE LA RECHERCHE MEDICALE, priority 2022, published 2026)

Key:
C57B1/6 female mice [1] = test: Histology of skin sections, Lyve1 and CD31 immunostaining; type: in vivo, mouse; settings: lymphedema limb skin
Experimental: Skin of lymphedema and control limb were collected 2 weeks after surgery and fixed in 10% neutral buffered formalin O/N at 4° C. Tissue are then embedded in paraffin and sectioned on a microtome. 5 μm sections were cut and placed on Superfrost Plus slides. Tissue were deparaffinized, rehydrated and antigen unmasking was realized with pH 9 Tris solution (H-3301, Vector Laboratories) 5 min three times in a microwave. After cooling, slides were washed in PBS and then blocked with 5% BSA solution at room temperature in humid chamber. Sections were incubated with primary antibodies O/N at 4° C. (Goat anti-murine Lyvel, R&D AF2125; rabbit anti-CD31, abcam Ab28364) and washed three times in PBS. Sections were incubated with the corresponding secondary antibodies conjugated to Alexa-488 or -594 for 1h at room temperature au 1/400 dilution. DNA was stained with DAPI. Slides were mounted with Dako Fluorescence Mounting Medium (S3023). Images were acquired a fluorescent inverted microscope (Leica, DMi8). Images were analysed with Fiji software.

C57B1/6 female mice [2] = test: Lymphangiography with FITC-Dextran in lymphedema mouse model; type: in vivo; settings: two weeks after surgery
Experimental: Two weeks after surgery, mice were anesthetized with an intraperitoneal injection of ketamine (100 mg/kg) (Zoletil 100, Virbac) and xylazine (10 mg/kg) (Rompun 2%, Bayer). FITC-Dextran ([…], 2 mg/mL, Sigma) was injected into the footpad of lymphedema and control limb. The fluorescent molecule was taken up by the lymphatics and excluded from the blood vessels. After 5 min, the skin was analyzed under the modular stereo microscope discovery. V12 stereo (Zeiss).

[3] = system: afferent collecting lymphatic vessels to the popliteal lymph node; test: Collecting vessel contraction measures (intravital imaging); type: in vivo, mouse; settings: L-NAME in drinking water 7 days
Experimental: Vessel contraction measurement of afferent collecting lymphatic vessels to the popliteal lymph node (PLN) were performed as described previously (Liao S. et al.). Briefly mice were anesthetized with an intraperitoneal injection of ketamine (100 mg/Kg) and xylazine (10 mg/kg). 6 μL of FITC-Dextran was injected into the footpad of the lower right limb. The skin is carefully removed to expose afferent collecting lymphatic vessels to the PLN. Mouse is then placed into a petri dish and onto the stage of an inverted microscope (Leica, DMi8). 4 videos of 90 sec were acquired per mice and the number of contraction and dilatation (difference between maximum and minimum diameter) was analysed using Fiji software. To assess the effect of Apelin, lentiviral vector was injected into the derm in the lower right limb 7 days before the experiment. For L-NAME study, mice were allowed to drink freely for 7 days.

C57B1/6 female mice [4] = test: Evaluation of dermis fibrosis, Masson's trichrome coloration; type: in vivo, mouse; settings: lymphedema limb skin
Experimental: Dermis fibrosis was evaluated with Masson's trichrome coloration (MST-100T, Cliniscience). Skin sections were deparraffinized and tissue were stained according the manufacturer's recommendations. Images were acquired on a nanozoomer slide scanner. Dermis size quantification was performed using at least 10 measurements of the length between epidermis and hypodermis per field.

C57B1/6 female mice [5] = test: Mouse model of secondary lymphedema, limb size measured using caliper; type: in vivo; settings: LV-apelin treated mice submitted to L-NAME treatment
Experimental: Mouse procedures were performed in accordance with EU and national regulation. C57B1/6 mouse were provided by Envigo. All experiments have been approved by the local branch Inserm Rangueil-Purpan of the Midi-Pyrénées ethics committee. Secondary lymphedema was established as previously described (Morfoisse et al. 2018). Briefly, lymphedema was established in the left upper limb of 6 weeks-old C57B1/6 female mice. A partial mastectomy of the second mammary gland is performed in association with axillary and brachial lymphadenectomy. Limb size was measured over time in the axillary region using caliper. Mice sustained edema for a period of 2 weeks. The day of the surgery, PBS or apelin lentiviral vector were injected in intradermic in the lymphedema limb (3 injections of 4 μL). […] For L-NAME (N^G-nitro-L-arginine methyl ester) (Sigma) treatment, L-NAME was resuspended in water (1 mg/ml) and mice were allowed to drink freely for 7 days.

[6] = system: Human dermal lymphatic endothelial cells (HDLEC); test: Immunoblotting of AKT, ERK and eNOS phosphorylation; type: cell-based; settings: conditioned media
Experimental: Human dermal lymphatic endothelial cells (HDLEC) (single donor, juvenile foreskin, Promocell, C-12216, >95% of the cells are CD31 positive and podoplanin positive) were cultured in Endothelial Cell Media MV2 (EGM-MV2, Promocell, C-22121). NIH3T3 were cultured in Dulbecco's modified Eagle's medium (DMEM, Sigma, D6429) supplemented with 10% fetal bovine serum (FBS, Gibco, 10270-06) and 1% penicillin-streptomycin. Endothelial cells were used at passage 3-6 and human fibroblasts were used at passage 4-7. Cells were cultured at 37° C. in a 5% CO2 incubator. Culture medium was changed 3 times a week, and the cells were passaged ⅓. For collecting conditioned media, NIH3T3 were grown in 10 cm dishes, after reaching confluence, medium was removed and the cells were washed once with PBS. NIH3T3 were cultured overnight in 5 mL reduced serum medium optiMEM (Gibco), the medium was then collected and used for experiments. HDLEC were treated with 50% conditioned media/50% MV2-05% FBS.
Cells were scrapped and lysed in RIPA buffer (RIPA 2X, Biotech RB4476) supplemented with phosphatase inhibitor (PhosSTOP Easypack, Roche0490687001) and protease inhibitors (protease inhibitor cocktail, Sigma Aldrich). Lysates were centrifuged at 13500 g for 10 minutes at 4° C. Supernatants were then collected and mix with Laemmli buffer containing dithiothreitol (DTT 1 mM). Protein were resolved on 4-15% SDS-PAGE gels and transferred to nitrocellulose membrane (Trans-Blot Turbo RTA transfer kit, #1704271, Biorad). Membranes were blocked for 1h at room temperature in 5% BSA-TBS-T (TBS-0.1% Tween 20) and probed with primary antibody overnight at 4° C. Antibody used are the following: Phospho AKT: AKT-p ser473 (CS #4060S), AKT: santa cruz H136 (S8312), Phospho ERK: ERK1/2-p (MAPKp42/44) (Thr202/Thr204) (cell signalling #9106), ERK ERK1/2-(MAPKp42/44) (Thr202/Thr204) (cell signalling #9102), Phospho eNOS (cell signalling #9571S), eNOS (cell signalling #5880S), E2F8 (Abcam, AB109596), VEGFR3 (RID system AF349), Phospho-VEGFR3 (Affinity AF3676), CCBE1 (Sigma SAB1402017).
After three washes in TBS-T, membranes were probed with HRP-conjugated secondary antibodies at 1/10000 dilution. Signals were visualized with chemiluminescence detection reagent (Sigma) on a Chemidoc (Biorad) digital acquisition system.

[7] = system: Human dermal lymphatic endothelial cells (HDLEC); test: Bulk RNA-sequencing, differential gene expression and GO analysis; type: cell-based; settings: compared to WT
Experimental: Human dermal lymphatic endothelial cells (HDLEC) (single donor, juvenile foreskin, Promocell, C-12216, >95% of the cells are CD31 positive and podoplanin positive) were cultured in Endothelial Cell Media MV2 (EGM-MV2, Promocell, C-22121). NIH3T3 were cultured in Dulbecco's modified Eagle's medium (DMEM, Sigma, D6429) supplemented with 10% fetal bovine serum (FBS, Gibco, 10270-06) and 1% penicillin-streptomycin. Endothelial cells were used at passage 3-6 and human fibroblasts were used at passage 4-7. Cells were cultured at 37° C. in a 5% CO2 incubator. Culture medium was changed 3 times a week, and the cells were passaged ⅓. For collecting conditioned media, NIH3T3 were grown in 10 cm dishes, after reaching confluence, medium was removed and the cells were washed once with PBS. NIH3T3 were cultured overnight in 5 mL reduced serum medium optiMEM (Gibco), the medium was then collected and used for experiments. HDLEC were treated with 50% conditioned media/50% MV2-05% FBS. Total RNA from HDLEC transduced or not with Apelin Lentivector were prepared using the RNeasy mini kit (Qiagen 74106). Total RNA were then subjected to ribosomal-RNA depleted RNA sequencing (RNA-Seq) protocol performed by Genewiz company using Illumina HiSeq, PE 2×150 configuration. Sequence reads were trimmed to remove possible adapter sequences and nucleotides with poor quality using Trimmomatic v.0.36. The trimmed reads were mapped to the Homo sapiens GRCh38 reference genome available on ENSEMBL using the STAR aligner v.2.5.2b. The STAR aligner is a splice aligner that detects splice junctions and incorporates them to help align the entire read sequences. BAM files were generated as a result of this step. Unique gene hit counts were calculated by using feature Counts from the Subread package v.1.5.2. The hit counts were summarized and reported using the gene_id feature in annotation file. Only unique reads that fell within exon regions were counted. Distribution of read counts in libraries were examined before and after normalization. The original read counts were normalized to adjust for various factors such as variations of sequencing yield between samples. These normalized read counts were used to accurately determine differentially expressed genes. Data quality assessments were performed to detect any samples that are not representative of their group, and thus, may affect the quality of the analysis. The overall similarity among samples were assessed by the Euclidean distance between samples. This method was used to examine which samples are similar/different to each other and if they fit to the expectation from the experiment design. The shorter the distance, the more closely related the samples are. Samples were then clustered by using the distance. A principal component analysis was also performed to reveal the similarity between samples based on the distance matrix. After extraction of gene hit counts, the gene hit counts table was used for downstream differential expression analysis. Using DESeq2, a comparison of gene expression between Apelin transduced LEC against non-transduced LEC was performed. The Wald test was used to generate p-values and log2 fold changes. […] The global transcriptional change across the two groups compared was visualized by a volcano plot. Each data point in the volcano plot represents a gene. The log2 fold change of each gene is represented on the x-axis and the log10 of its adjusted p-value is on the y-axis.

## COC(=O)[C@@H](N)CCCNC(=N)N[N+](=O)[O-] [L-NAME, N^G-nitro-L-arginine methyl ester]
C57B1/6 female mice [1]
  lymphatic vessel dilatation (vessel area / diameter): inhibited
C57B1/6 female mice [2]
  lymphatic vessel morphology / remodelling (lymphangiography): reverse apelin effect on lymphatic vascular network
[3]
  effect on apelin-stimulated collector dilatation: completely reversed
C57B1/6 female mice [4]
  fibrosis: no effect on fibrosis
C57B1/6 female mice [5]
  effect on apelin benefit on lymphedema (limb diameter): reversed the beneficial effect of apelin on lymphedema

B1: VEGF-C: vascular endothelial growth factor C; media containing VEGF-C used as positive control on HDLEC (protein, listed as Homo sapiens)
chain: MHLLGFFSVACSLLAAALLPGPREAPAAAAAFESGLDLSDAEPDAGEATAYASKDLEEQLRSVSSVDELMTVLYPEYWKMYKCQLRKGGWQHNREQANLNSRTEETIKFAAAHYNTEILKSIDNEWRKTQCMPREVCIDVGKEFGVATNTFFKPPCVSVYRCGGCCNSEGLQCMNTSTSYLSKTLFEITVPLSQGPKPVTISFANHTSCRCMSKLDVYRQVHSIIRRSLPATLPQCQAANKTCPTNYMWNNHICRCLAQEDFMFSSDAGDDSTDGFHDICGPNKELDEETCQCVCRAGLRPASCGPHKELDRNSCQCVCKNKLFPSQCGANREFDENTCQCVCKRTCPRNQPLNPGKCACECTESPQKCLLKGKKFHHQTCSCYRRPCTNRQKACEPGFSYSEEVCRCVPSYWKRPQMS
[6]; HDLEC
  eNOS phosphorylation: observed
[6]; 24 h time course
  AKT activation (phosphorylation): strong activation
  ERK activation: strong activation
[7]
  expression of genes related to VEGFC maturation (ADAMTS2, CCBE1): improved
